The source of these data is patent US7674819B2 (Warner-Lambert Company LLC, priority 2005, dated 2010).

Structures are written as SMILES.

The target in the first assay is T1, hAR (Homo sapiens, UniProt P10275).
T1 sequence (P10275 1-920): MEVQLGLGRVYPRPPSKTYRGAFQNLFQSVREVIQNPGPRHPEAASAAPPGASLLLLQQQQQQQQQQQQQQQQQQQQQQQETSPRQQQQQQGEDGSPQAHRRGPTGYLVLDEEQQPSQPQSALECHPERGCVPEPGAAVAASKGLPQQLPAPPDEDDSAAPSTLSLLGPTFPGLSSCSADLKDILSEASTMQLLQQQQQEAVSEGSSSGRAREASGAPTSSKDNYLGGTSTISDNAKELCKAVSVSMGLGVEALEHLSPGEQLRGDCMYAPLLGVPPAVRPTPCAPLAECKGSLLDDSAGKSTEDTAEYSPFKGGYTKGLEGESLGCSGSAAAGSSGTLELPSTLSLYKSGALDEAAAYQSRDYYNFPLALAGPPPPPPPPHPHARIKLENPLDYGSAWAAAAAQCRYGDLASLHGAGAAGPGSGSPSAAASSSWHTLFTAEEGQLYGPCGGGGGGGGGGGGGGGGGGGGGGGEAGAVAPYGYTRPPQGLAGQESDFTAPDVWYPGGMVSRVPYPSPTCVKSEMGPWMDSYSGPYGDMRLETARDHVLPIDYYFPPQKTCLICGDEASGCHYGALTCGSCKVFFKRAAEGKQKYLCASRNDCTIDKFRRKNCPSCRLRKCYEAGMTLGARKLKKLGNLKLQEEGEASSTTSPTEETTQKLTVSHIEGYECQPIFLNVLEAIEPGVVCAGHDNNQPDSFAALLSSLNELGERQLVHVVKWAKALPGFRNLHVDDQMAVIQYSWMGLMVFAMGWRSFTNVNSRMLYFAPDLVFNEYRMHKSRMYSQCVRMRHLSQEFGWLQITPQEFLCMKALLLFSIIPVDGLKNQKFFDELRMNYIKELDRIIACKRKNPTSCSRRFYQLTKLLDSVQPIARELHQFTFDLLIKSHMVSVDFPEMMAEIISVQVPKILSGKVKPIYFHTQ
Briefly: Competitive binding of 3H-DHT to baculovirus/Sf9 generated hAR extracts. Particulars: IC50, concentration at which one half of maximum binding of 1 nM 3H-DHT to hAR is inhibited; one hour at 4° C.; mean of multiple tests. As to the method: The description below describes how the assay was carried out.
Competitive binding analysis was performed on baculovirus/Sf9 generated hAR extracts in the presence or absence of different concentrations of test agent and a fixed concentration of ^3H-dihydrotestosterone (^3H-DHT) as tracer. This binding assay method is a modification of a protocol previously described (Liao S., et. al. J. Steroid Biochem. 20:11-17 1984). Briefly, progressively decreasing concentrations of compounds are incubated in the presence of hAR extract (Chang et al. P.N.A.S. Vol. 89, pp. […], 1992), hydroxylapatite, and 1 nM^3H-DHT for one hour at 4° C. Subsequently, the binding reactions are washed three times to completely remove excess unbound ^3H-DHT. hAR bound ^3H-DHT levels are determined in the presence of compounds (i.e. competitive binding) and compared to levels bound when no competitor is present (i.e. maximum binding). Compound binding affinity to the hAR is expressed as the concentration of compound at which one half of the maximum binding is inhibited.
Take `CC(c1nnc(-c2ccccc2)o1)N1CC(C)(C)C(Oc2ccc(C#N)c(C(F)(F)F)c2)C1=O` (stereo not drawn) [Example 128, 4-[4,4-Dimethyl-2-oxo-1-[1-(5-phenyl-[1,3,4]oxadiazol-2-yl)-ethyl]-pyrrolidin-3-yloxy]-2-trifluoromethyl-benzonitrile]: the IC50 came out at 82 nM.
Same read-out and setting: as for `Cc1ccc(-c2nnc(C(C)N3CC(C)(C)C(Oc4ccc(C#N)c(C(F)(F)F)c4)C3=O)o2)cc1` (stereo not drawn) [Example 129, 4-[4,4-Dimethyl-2-oxo-1-[1-(5-p-tolyl-[1,3,4]oxadiazol-2-yl)-ethyl]-pyrrolidin-3-yloxy]-2-trifluoromethyl-benzonitrile], the figure is 63 nM.
As for `CC(c1nnc(-c2ccc(O)cc2O)o1)N1CC(C)(C)C(Oc2ccc(C#N)c(C(F)(F)F)c2)C1=O` (stereo not drawn) [Example 132, 4-(1-{1-[5-(2,4-dihydroxy-phenyl)-[1,3,4]oxadiazol-2-yl]-ethyl}-4,4-dimethyl-2-oxo-pyrrolidin-3-yloxy)-2-trifluoromethyl-benzonitrile], the IC50 was 52 nM.
`COc1ccccc1-c1nnc(C(C)N2CC(C)(C)C(Oc3ccc(C#N)c(C(F)(F)F)c3)C2=O)o1` (stereo not drawn) [Example 133, 4-(1-{1-[5-(2-methoxy-phenyl)-[1,3,4]oxadiazol-2-yl]-ethyl}-4,4-dimethyl-2-oxo-pyrrolidin-3-yloxy)-2-trifluoromethyl-benzonitrile]: the IC50 was determined as 60 nM.
As for `COc1cccc(-c2nnc(C(C)N3CC(C)(C)C(Oc4ccc(C#N)c(C(F)(F)F)c4)C3=O)o2)c1` (stereo not drawn) [Example 134, 4-(1-{1-[5-(3-methoxy-phenyl)-[1,3,4]oxadiazol-2-yl]-ethyl}-4,4-dimethyl-2-oxo-pyrrolidin-3-yloxy)-2-trifluoromethyl-benzonitrile], the IC50 stood at 76 nM.
Same read-out and setting: in the case of `COc1ccc(-c2nnc(C(C)N3CC(C)(C)C(Oc4ccc(C#N)c(C(F)(F)F)c4)C3=O)o2)cc1` (stereo not drawn) [Example 135, 4-(1-{1-[5-(4-methoxy-phenyl)-[1,3,4]oxadiazol-2-yl]-ethyl}-4,4-dimethyl-2-oxo-pyrrolidin-3-yloxy)-2-trifluoromethyl-benzonitrile] it was 44 nM.

Staying with this assay, now noted: concentration at which one half of maximum binding of 1 nM 3H-DHT to hAR is inhibited; one hour at 4° C.; mean of multiple tests; read-out: IC50.
On to `CC(C)S(=O)(=O)N1CC(C)(C)C(Oc2ccc(C#N)c(C(F)(F)F)c2)C1=O` (stereo not drawn) [Example 79, 4-[4,4-Dimethyl-2-oxo-1-(propane-2-sulfonyl)-pyrrolidin-3-yloxy]-2-trifluoromethyl-benzonitrile], for which the IC50 was 305 nM.
On to `Cc1ccc(S(=O)(=O)N2CC(C)(C)C(Oc3ccc(C#N)c(C(F)(F)F)c3)C2=O)s1` (stereo not drawn) [Example 85, 4-[4,4-Dimethyl-1-(5-methyl-thiophene-2-sulfonyl)-2-oxo-pyrrolidin-3-yloxy]-2-trifluoromethyl-benzonitrile], for which the IC50 came to 233 nM.
Still for that read-out and setting: as for `Cc1nc(C)c(S(=O)(=O)N2CC(C)(C)C(Oc3ccc(C#N)c(C(F)(F)F)c3)C2=O)s1` (stereo not drawn) [Example 89, 4-[1-(2,4-Dimethyl-thiazole-5-sulfonyl)-4,4-dimethyl-2-oxo-pyrrolidin-3-yloxy]-2-trifluoromethyl-benzonitrile], the figure is 281 nM; as for `CCCCS(=O)(=O)N1CC(C)(C)C(Oc2ccc(C#N)c(C(F)(F)F)c2)C1=O` (stereo not drawn) [Example 90, 4-[1-(Butane-1-sulfonyl)-4,4-dimethyl-2-oxo-pyrrolidin-3-yloxy]-2-trifluoromethyl-benzonitrile], 309 nM.
On the same count and under the same terms, in the case of `CC1(C)CN(S(=O)(=O)c2ccccc2C#N)C(=O)C1Oc1ccc(C#N)c(C(F)(F)F)c1` (stereo not drawn) [Example 91, 4-[1-(2-Cyano-benzenesulfonyl)-4,4-dimethyl-2-oxo-pyrrolidin-3-yloxy]-2-trifluoromethyl-benzonitrile] it was 508 nM.
On the same count and under the same terms, in the case of `Cc1cc(S(=O)(=O)N2CC(C)(C)C(Oc3ccc(C#N)c(C(F)(F)F)c3)C2=O)c(C)s1` (stereo not drawn) [Example 92, 4-[1-(2,5-Dimethyl-thiophene-3-sulfonyl)-4,4-dimethyl-2-oxo-pyrrolidin-3-yloxy]-2-trifluoromethyl-benzonitrile] it was 334 nM; in that of `COC(=O)c1ccc(S(=O)(=O)N2CC(C)(C)C(Oc3ccc(C#N)c(C(F)(F)F)c3)C2=O)o1` (stereo not drawn) [Example 100A, 5-[3-(4-Cyano-3-trifluoromethyl-phenoxy)-4,4-dimethyl-2-oxo-pyrrolidine-1-sulfonyl]-furan-2-carboxylic acid methyl ester], 242 nM.
In the case of `COc1cc(OC2C(=O)N(S(C)(=O)=O)CC2(C)C)ccc1C#N` (stereo not drawn) [Example 100D, 4-(1-Methanesulfonyl-4,4-dimethyl-2-oxo-pyrrolidin-3-yloxy)-2-methoxy-benzonitrile], the IC50 was 555 nM.
On the same count and under the same terms, as for `CCC(CC)C(=O)N1CC(C)(C)C(Oc2ccc(C#N)c(C(F)(F)F)c2)C1=O` (stereo not drawn) [Example 100E, 4-[1-(2-Ethyl-butyryl)-4,4-dimethyl-2-oxo-pyrrolidin-3-yloxy]-2-trifluoromethyl-benzonitrile], the figure is 372 nM.
Take `CC1(C)CN(C2CCC2)C(=O)C1Oc1ccc(C#N)c(C(F)(F)F)c1` (stereo not drawn) [Example 100F, 4-(1-Cyclobutyl-4,4-dimethyl-2-oxo-pyrrolidin-3-yloxy)-2-trifluoromethyl-benzonitrile]: the IC50 was determined as 243 nM.
As for `CCCC(=O)N1CC(C)(C)C(Oc2ccc(C#N)c(C(F)(F)F)c2)C1=O` (stereo not drawn) [Example 102, 4-(1-Butyryl-4,4-dimethyl-2-oxo-pyrrolidin-3-yloxy)-2-trifluoromethyl-benzonitrile], the IC50 worked out at 418 nM.
On to `Cc1noc(C)c1C(=O)N1CC(C)(C)C(Oc2ccc(C#N)c(C(F)(F)F)c2)C1=O` (stereo not drawn) [Example 106, 4-[1-(3,5-Dimethyl-isoxazole-4-carbonyl)-4,4-dimethyl-2-oxo-pyrrolidin-3-yloxy]-2-trifluoromethyl-benzonitrile], for which the IC50 is 342 nM.
On the same count and under the same terms, in the case of `CC1(C)CN(C(=O)c2cccs2)C(=O)C1Oc1ccc(C#N)c(C(F)(F)F)c1` (stereo not drawn) [Example 108, 4-[4,4-Dimethyl-2-oxo-1-(thiophene-2-carbonyl)-pyrrolidin-3-yloxy]-2-trifluoromethyl-benzonitrile] it was 370 nM; in that of `Cc1ccccc1-c1nnc(CN2CC(C)(C)C(Oc3ccc(C#N)c(C(F)(F)F)c3)C2=O)o1` (stereo not drawn) [Example 111, 4-[4,4-Dimethyl-2-oxo-1-(5-o-tolyl-[1,3,4]oxadiazol-2-ylmethyl)-pyrrolidin-3-yloxy]-2-trifluoromethyl-benzonitrile], 239 nM.
`CC1(C)CN(Cc2nnc(-c3cccc(Cl)c3)o2)C(=O)C1Oc1ccc(C#N)c(C(F)(F)F)c1` (stereo not drawn) [Example 120, 4-{1-[5-(3-Chloro-phenyl)-[1,3,4]oxadiazol-2-ylmethyl]-4,4-dimethyl-2-oxo-pyrrolidin-3-yloxy}-2-trifluoromethyl-benzonitrile]: the IC50 came out at 347 nM.
For the compound `Cc1cccc(-c2nnc(CN3CC(C)(C)C(Oc4ccc(C#N)c(C(F)(F)F)c4)C3=O)o2)c1` (stereo not drawn) [Example 122, 4-[4,4-Dimethyl-2-oxo-1-(5-m-tolyl-[1,3,4]oxadiazol-2-ylmethyl)-pyrrolidin-3-yloxy]-2-trifluoromethyl-benzonitrile], the IC50 worked out at 271 nM.
Consider `CCOc1cccc(-c2nnc(CN3CC(C)(C)C(Oc4ccc(C#N)c(C(F)(F)F)c4)C3=O)o2)c1` (stereo not drawn) [Example 124, 4-{1-[5-(3-Ethoxy-phenyl)-[1,3,4]oxadiazol-2-ylmethyl]-4,4-dimethyl-2-oxo-pyrrolidin-3-yloxy}-2-trifluoromethyl-benzonitrile], for which the IC50 came to 404 nM.
As to `CC1(C)CN(Cc2nnc(-c3ccc(Cl)cc3)o2)C(=O)C1Oc1ccc(C#N)c(C(F)(F)F)c1` (stereo not drawn) [Example 125, 4-{1-[5-(4-Chloro-phenyl)-[1,3,4]oxadiazol-2-ylmethyl]-4,4-dimethyl-2-oxo-pyrrolidin-3-yloxy}-2-trifluoromethyl-benzonitrile], the IC50 amounted to 250 nM.
